Laboratory results reported in patent publication US20070026080A1, “Manufacturing process for tigecycline” (Wyeth, priority 2005, published 2007).

Test: Strength and degradation profile of tigecycline 20 mg/mL bulk solutions by reversed phase HPLC (effect of temperature, time, pH, dissolved oxygen; Runs A to O)
Format: physicochemical
Settings: 2° C.
Procedure: The contents of the sample vials are dissolved in diluent. The sample solution is diluted, if necessary, and chromatographed on a reversed phase column using gradient elution. Impurities are determined by comparing the impurity peak areas in the sample preparation chromatogram to the average area of tigecycline peaks in the standard preparation chromatograms obtained concomitantly.
Chromatographic Column—Length about 15 cm, inside diameter about 4.6 mm, packed with Inertsil ODS2, 5 μm size particles or equivalent.
Detector—Ultraviolet spectrophotometric detector capable of operating at 248 nm with a sensitivity of about 0.5 absorbance units full scale.
The results of additional studies to investigate the effect of processing parameters such as temperature, time, and dissolved oxygen content on the purity profile of tigecycline solutions using the following materials, methods and procedures are presented in Tables A to O.
The experiments were run in plastic glove bags under normal laboratory light conditions. Plastic glove boxes will be used to control the headspace of the beakers. The batch size was 200 mL. • 1. Prepare the glove bag with a mixture of nitrogen and air to achieve an oxygen level in the solution as per the design. • 2. Place the jacketed beaker on the magnetic stirrer. Connect it to the cooler. Set the cooler to the desired set point. • 3. Add 200 mL of SWFI in to the beaker. Allow equilibrating. Measure the temperature and oxygen content. When it reaches the desired condition, add accurately weighed API and mix until dissolved. If necessary use spatula to aid dissolution. For pH adjustments, use 4 mL of either 0.1N NaOH or 0.1N HCl and 196 mL of WFI for manufacture. • 4. After complete dissolution, Transfer about 5.5 mL of Solution in vials and stopper them. These vials will be stoppered at the appropriate headspace conditions. Place the vials in appropriate temperature conditions. • 5. Sample the vials at 1, 4, 8, 10, 12 and 24 hours. Send the samples for analysis. Freeze the 10, 12 and 24 samples at −20° C. for analysis the following day. • 6. Measure pH and record color of the solution at each time point. Results
The 1-hour samples were taken directly from the beakers. Samples for later time points were collected in stoppered vials processed in the atmosphere of the bag in order to simulate the headspace conditions then placed in water baths or refrigerator to maintain there respective temperature conditions. This was done to maintain safety in the lab. Disposable plastic glove bags require constant flow of a mixture of nitrogen and air to maintain headspace oxygen level that will result in the desired dissolved oxygen (DO) content in the sample. The pH of samples was measured at each sample points.
Strength and degradation profile was analyzed by HPLC as described above. […] Degradation was slightly higher at higher temperature condition.

[1] = Run #K, 20 mg/mL, pH 8.2, Oxygen 0.1 mg/L, hours 1,4,8,10,12,24 at r6-r11, after 24 hours
[2] = Run #L, pH 7.7, Oxygen = 0.1 mg/L, 1 Hrs
[3] = Run #L, pH 7.7, Oxygen = 0.1 mg/L, 4 Hrs
[4] = Run #L, pH 7.7, Oxygen = 0.1 mg/L, 8 Hrs
[5] = Run #L, pH 7.7, Oxygen = 0.1 mg/L, 10 Hrs
[6] = Run #L, pH 7.7, Oxygen = 0.1 mg/L, 12 Hrs

CN(C)c1cc(NC(=O)CNC(C)(C)C)c(O)c2c1C[C@H]1C[C@H]3[C@H](N(C)C)C(O)=C(C(N)=O)C(=O)[C@@]3(O)C(O)=C1C2=O [Tigecycline]
RRT 0.74 Epimer [1]: 0.17%
RRT 1.45 [1]: 0.08%
RRT 1.64 Mino [1]: 0.14%
RRT 1.85 MW = 597 [1]: 0.08%
Strength [1]: 19.067 mg/mL
Total [1]: 0.55%
RRT 0.12 MW = 633 [2]: BRL (BRL means below reporting limit (meaning less than 0.05% of tigecycline peak))
RRT 0.23 MW = 572 [2]: BRL (BRL means below reporting limit (meaning less than 0.05% of tigecycline peak))
RRT 0.50 MW = 601 [2]: BRL (BRL means below reporting limit (meaning less than 0.05% of tigecycline peak))
RRT 0.55 MW = 583 [2]: BRL (BRL means below reporting limit (meaning less than 0.05% of tigecycline peak))
RRT 0.58 [2]: 0.08%
RRT 0.64 9-Amino [2]: BRL (BRL means below reporting limit (meaning less than 0.05% of tigecycline peak))
RRT 0.74 Epimer [2]: 0.17%
RRT 0.76 [2]: BRL (BRL means below reporting limit (meaning less than 0.05% of tigecycline peak))
RRT 0.78 MW = 557 [2]: BRL (BRL means below reporting limit (meaning less than 0.05% of tigecycline peak))
RRT 1.12 [2]: BRL (BRL means below reporting limit (meaning less than 0.05% of tigecycline peak))
RRT 1.45 [2]: 0.08%
RRT 1.58 [2]: BRL (BRL means below reporting limit (meaning less than 0.05% of tigecycline peak))
RRT 1.64 Mino [2]: 0.14%
RRT 1.67 MW = 556 [2]: BRL (BRL means below reporting limit (meaning less than 0.05% of tigecycline peak))
RRT 1.85 MW = 597 [2]: 0.07%
Strength [2]: 19.23 mg/mL
Total [2]: 0.53%
RRT 0.12 MW = 633 [3]: BRL (BRL means below reporting limit (meaning less than 0.05% of tigecycline peak))
RRT 0.23 MW = 572 [3]: BRL (BRL means below reporting limit (meaning less than 0.05% of tigecycline peak))
RRT 0.50 MW = 601 [3]: BRL (BRL means below reporting limit (meaning less than 0.05% of tigecycline peak))
RRT 0.55 MW = 583 [3]: BRL (BRL means below reporting limit (meaning less than 0.05% of tigecycline peak))
RRT 0.58 [3]: 0.08%
RRT 0.64 9-Amino [3]: BRL (BRL means below reporting limit (meaning less than 0.05% of tigecycline peak))
RRT 0.74 Epimer [3]: 0.17%
RRT 0.76 [3]: BRL (BRL means below reporting limit (meaning less than 0.05% of tigecycline peak))
RRT 0.78 MW = 557 [3]: BRL (BRL means below reporting limit (meaning less than 0.05% of tigecycline peak))
RRT 1.12 [3]: BRL (BRL means below reporting limit (meaning less than 0.05% of tigecycline peak))
RRT 1.45 [3]: 0.07%
RRT 1.58 [3]: BRL (BRL means below reporting limit (meaning less than 0.05% of tigecycline peak))
RRT 1.64 Mino [3]: 0.15%
RRT 1.67 MW = 556 [3]: BRL (BRL means below reporting limit (meaning less than 0.05% of tigecycline peak))
RRT 1.85 MW = 597 [3]: 0.08%
Strength [3]: 19.053 mg/mL
Total [3]: 0.54%
RRT 0.12 MW = 633 [4]: BRL (BRL means below reporting limit (meaning less than 0.05% of tigecycline peak))
RRT 0.23 MW = 572 [4]: BRL (BRL means below reporting limit (meaning less than 0.05% of tigecycline peak))
RRT 0.50 MW = 601 [4]: BRL (BRL means below reporting limit (meaning less than 0.05% of tigecycline peak))
RRT 0.55 MW = 583 [4]: BRL (BRL means below reporting limit (meaning less than 0.05% of tigecycline peak))
RRT 0.58 [4]: 0.08%
RRT 0.64 9-Amino [4]: BRL (BRL means below reporting limit (meaning less than 0.05% of tigecycline peak))
RRT 0.74 Epimer [4]: 0.17%
RRT 0.76 [4]: 0.05%
RRT 0.78 MW = 557 [4]: BRL (BRL means below reporting limit (meaning less than 0.05% of tigecycline peak))
RRT 1.12 [4]: BRL (BRL means below reporting limit (meaning less than 0.05% of tigecycline peak))
RRT 1.45 [4]: 0.08%
RRT 1.58 [4]: BRL (BRL means below reporting limit (meaning less than 0.05% of tigecycline peak))
RRT 1.64 Mino [4]: 0.13%
RRT 1.67 MW = 556 [4]: BRL (BRL means below reporting limit (meaning less than 0.05% of tigecycline peak))
RRT 1.85 MW = 597 [4]: 0.08%
Strength [4]: 18.988 mg/mL
Total [4]: 0.60%
RRT 0.12 MW = 633 [5]: BRL (BRL means below reporting limit (meaning less than 0.05% of tigecycline peak))
RRT 0.23 MW = 572 [5]: BRL (BRL means below reporting limit (meaning less than 0.05% of tigecycline peak))
RRT 0.50 MW = 601 [5]: BRL (BRL means below reporting limit (meaning less than 0.05% of tigecycline peak))
RRT 0.55 MW = 583 [5]: BRL (BRL means below reporting limit (meaning less than 0.05% of tigecycline peak))
RRT 0.58 [5]: 0.07%
RRT 0.64 9-Amino [5]: BRL (BRL means below reporting limit (meaning less than 0.05% of tigecycline peak))
RRT 0.74 Epimer [5]: 0.22%
RRT 0.76 [5]: 0.05%
RRT 0.78 MW = 557 [5]: BRL (BRL means below reporting limit (meaning less than 0.05% of tigecycline peak))
RRT 1.12 [5]: BRL (BRL means below reporting limit (meaning less than 0.05% of tigecycline peak))
RRT 1.45 [5]: 0.07%
RRT 1.58 [5]: BRL (BRL means below reporting limit (meaning less than 0.05% of tigecycline peak))
RRT 1.64 Mino [5]: 0.13%
RRT 1.67 MW = 556 [5]: BRL (BRL means below reporting limit (meaning less than 0.05% of tigecycline peak))
RRT 1.85 MW = 597 [5]: 0.08%
Strength [5]: 19.424 mg/mL
Total [5]: 0.62%
RRT 0.12 MW = 633 [6]: BRL (BRL means below reporting limit (meaning less than 0.05% of tigecycline peak))
RRT 0.23 MW = 572 [6]: BRL (BRL means below reporting limit (meaning less than 0.05% of tigecycline peak))
RRT 0.50 MW = 601 [6]: BRL (BRL means below reporting limit (meaning less than 0.05% of tigecycline peak))
RRT 0.55 MW = 583 [6]: BRL (BRL means below reporting limit (meaning less than 0.05% of tigecycline peak))
RRT 0.58 [6]: 0.07%
RRT 0.64 9-Amino [6]: BRL (BRL means below reporting limit (meaning less than 0.05% of tigecycline peak))
RRT 0.74 Epimer [6]: 0.23%
RRT 0.76 [6]: BRL (BRL means below reporting limit (meaning less than 0.05% of tigecycline peak))
RRT 0.78 MW = 557 [6]: BRL (BRL means below reporting limit (meaning less than 0.05% of tigecycline peak))
RRT 1.12 [6]: BRL (BRL means below reporting limit (meaning less than 0.05% of tigecycline peak))
